PMC8654833 (Scientific Reports, 2021)
Several values for one entry are separate records, joined by “and”; a condition that tells them apart may be missing. Equal values may be shown once.

Assays:
[1] = biological target: Ca^2+ channel, vs; test: Radioligand binding competition dose-response (Euroscreen), Ca2+ channel verapamil site
Description: (§1) This study included binding assays (87 GPCR targets), measured as % of binding inhibition of a reference radioligand, as well as uptake and enzyme assays (19 targets), the latter measured as % inhibition of control enzyme activity. […] It was performed by radioligand binding competition by Euroscreen (Euroscreen FAST, Belgium). The following nanomolar concentrations were tested in duplicate: 0.001, 0.01, 0.1, 1, 10, 100, 1000, 10,000. Dose–response curves were fitted with the least squares method. IC50 results are shown as pIC50, corresponding to the negative log10 of IC50 in molar.

[2] = biological target: T1, 5-HT1A (Homo sapiens, UniProt P08908); test: Single-concentration radioligand binding screen (Eurofins Cerep), 5-HT1A; details: single concentration 10 µM screen, [3H]8-OH-DPAT
T1 construct: Euroscreen FAST (contract assay)
T1 sequence (P08908 1-422): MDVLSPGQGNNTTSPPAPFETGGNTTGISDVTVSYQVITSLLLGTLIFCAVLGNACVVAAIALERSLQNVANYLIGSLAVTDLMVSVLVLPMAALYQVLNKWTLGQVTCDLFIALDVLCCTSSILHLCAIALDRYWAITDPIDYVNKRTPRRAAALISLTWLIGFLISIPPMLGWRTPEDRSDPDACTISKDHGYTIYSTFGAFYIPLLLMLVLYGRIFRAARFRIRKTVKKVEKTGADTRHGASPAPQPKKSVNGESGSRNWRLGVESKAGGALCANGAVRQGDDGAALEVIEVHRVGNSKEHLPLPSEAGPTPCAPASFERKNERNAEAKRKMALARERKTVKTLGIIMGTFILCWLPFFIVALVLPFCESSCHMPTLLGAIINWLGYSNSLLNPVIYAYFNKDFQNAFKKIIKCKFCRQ
Description: as §1

[3] = biological target: T2, 5-HT2C (Homo sapiens, UniProt P28335); test: Radioligand binding competition dose-response (Euroscreen), 5-HT2C
T2 construct: Euroscreen FAST (contract assay)
T2 sequence (P28335 33-458): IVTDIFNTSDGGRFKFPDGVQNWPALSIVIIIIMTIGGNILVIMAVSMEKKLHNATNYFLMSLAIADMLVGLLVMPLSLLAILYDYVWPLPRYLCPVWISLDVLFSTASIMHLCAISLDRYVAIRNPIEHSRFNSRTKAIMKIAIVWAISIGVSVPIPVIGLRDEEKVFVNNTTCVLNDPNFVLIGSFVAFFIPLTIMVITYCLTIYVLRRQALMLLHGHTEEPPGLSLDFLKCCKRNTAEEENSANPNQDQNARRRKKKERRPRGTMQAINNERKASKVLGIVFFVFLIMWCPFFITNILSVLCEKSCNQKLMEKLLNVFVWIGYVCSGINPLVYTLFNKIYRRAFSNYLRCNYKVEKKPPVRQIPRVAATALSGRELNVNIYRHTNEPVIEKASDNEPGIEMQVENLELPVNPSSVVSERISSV
Description: as §1

[4] = tested on: 5-HT2B receptor; details: cited from earlier work
[5] = biological target: T3, 5-HT1B (Rattus norvegicus, UniProt P28564); test: Single-concentration radioligand binding screen (Eurofins Cerep), 5-HT1B; details: read-out: %Binding inhibition at 10 µM
T3 construct: Eurofins Cerep (contract assay)
T3 sequence (P28564 whole entry): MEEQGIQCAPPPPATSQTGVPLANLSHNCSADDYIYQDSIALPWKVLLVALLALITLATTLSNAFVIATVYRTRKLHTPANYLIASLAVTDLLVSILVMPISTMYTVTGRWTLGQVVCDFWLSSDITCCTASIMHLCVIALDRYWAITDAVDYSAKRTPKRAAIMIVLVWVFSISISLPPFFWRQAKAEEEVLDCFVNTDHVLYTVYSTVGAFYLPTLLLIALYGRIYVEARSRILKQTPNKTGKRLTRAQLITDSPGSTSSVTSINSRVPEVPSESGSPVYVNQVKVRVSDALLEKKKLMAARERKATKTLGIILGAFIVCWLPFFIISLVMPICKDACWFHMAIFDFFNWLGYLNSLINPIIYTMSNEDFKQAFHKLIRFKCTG
Description: as §1

[6] = Plasma pharmacokinetics after IV, PO or SC administration; details: for half-life / bioavailability: in vivo
[7] = biological target: T4, 5-HT7 (Homo sapiens, UniProt P34969); test: Radioligand binding competition dose-response (Euroscreen), 5-HT7
T4 construct: Euroscreen FAST (contract assay)
T4 sequence (P34969 whole entry, species assumed): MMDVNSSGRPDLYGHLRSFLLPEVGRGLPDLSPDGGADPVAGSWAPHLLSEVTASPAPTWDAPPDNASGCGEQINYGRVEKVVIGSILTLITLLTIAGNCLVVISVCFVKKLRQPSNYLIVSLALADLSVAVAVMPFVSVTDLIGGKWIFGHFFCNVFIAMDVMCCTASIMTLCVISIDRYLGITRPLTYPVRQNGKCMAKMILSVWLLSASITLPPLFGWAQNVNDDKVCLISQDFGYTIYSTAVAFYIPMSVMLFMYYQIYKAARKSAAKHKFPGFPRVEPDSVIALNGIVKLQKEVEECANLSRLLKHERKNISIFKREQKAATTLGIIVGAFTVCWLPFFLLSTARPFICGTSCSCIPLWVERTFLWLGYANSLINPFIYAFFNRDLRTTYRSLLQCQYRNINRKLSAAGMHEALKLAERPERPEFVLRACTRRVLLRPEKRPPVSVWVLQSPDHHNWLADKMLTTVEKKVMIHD
Description: as §1

[8] = biological target: T5, NET (Homo sapiens, UniProt P23975); test: Single-concentration radioligand binding screen (Eurofins Cerep), norepinephrine transporter; details: single concentration 10 µM screen, 3H]nisoxetine
T5 construct: Euroscreen FAST (contract assay)
T5 sequence (P23975 whole entry): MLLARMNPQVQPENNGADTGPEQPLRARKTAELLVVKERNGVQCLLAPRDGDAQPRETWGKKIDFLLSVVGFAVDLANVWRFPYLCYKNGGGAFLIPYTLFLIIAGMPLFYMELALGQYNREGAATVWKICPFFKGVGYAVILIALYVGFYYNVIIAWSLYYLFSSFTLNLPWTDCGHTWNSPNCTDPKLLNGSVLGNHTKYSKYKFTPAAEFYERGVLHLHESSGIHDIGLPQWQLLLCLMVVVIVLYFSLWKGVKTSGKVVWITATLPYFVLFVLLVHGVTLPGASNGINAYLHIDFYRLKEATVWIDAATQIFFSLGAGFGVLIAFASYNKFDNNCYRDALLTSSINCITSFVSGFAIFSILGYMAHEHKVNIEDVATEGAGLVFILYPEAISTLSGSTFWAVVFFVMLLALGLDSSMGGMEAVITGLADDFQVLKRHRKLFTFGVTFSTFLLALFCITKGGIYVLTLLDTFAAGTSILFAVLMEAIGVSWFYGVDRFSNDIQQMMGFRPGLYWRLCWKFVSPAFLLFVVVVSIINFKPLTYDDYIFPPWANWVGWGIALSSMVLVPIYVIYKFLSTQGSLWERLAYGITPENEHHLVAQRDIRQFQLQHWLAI
Description: as §1

[9] = biological target: T6, DAT (Homo sapiens, UniProt Q01959); test: Radioligand binding competition dose-response (Euroscreen), dopamine transporter
T6 construct: Euroscreen FAST (contract assay)
T6 sequence (Q01959 whole entry, species assumed): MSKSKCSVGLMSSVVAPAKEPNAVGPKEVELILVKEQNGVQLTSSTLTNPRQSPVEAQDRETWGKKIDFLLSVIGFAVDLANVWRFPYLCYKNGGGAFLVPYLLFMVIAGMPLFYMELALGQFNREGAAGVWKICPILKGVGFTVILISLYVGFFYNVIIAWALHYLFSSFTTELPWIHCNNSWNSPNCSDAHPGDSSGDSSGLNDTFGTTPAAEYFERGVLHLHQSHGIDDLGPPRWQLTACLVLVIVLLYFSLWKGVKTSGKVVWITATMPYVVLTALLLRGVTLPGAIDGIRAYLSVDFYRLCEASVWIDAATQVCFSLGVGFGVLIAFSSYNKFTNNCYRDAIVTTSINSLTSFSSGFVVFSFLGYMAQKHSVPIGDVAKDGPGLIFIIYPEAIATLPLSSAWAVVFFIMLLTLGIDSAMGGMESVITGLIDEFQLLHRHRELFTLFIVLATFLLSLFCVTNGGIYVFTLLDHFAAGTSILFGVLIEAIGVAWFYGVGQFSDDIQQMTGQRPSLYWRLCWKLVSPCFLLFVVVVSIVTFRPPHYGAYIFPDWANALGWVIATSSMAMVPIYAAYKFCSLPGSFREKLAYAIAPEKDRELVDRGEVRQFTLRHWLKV
Description: as §1

[10] = in vivo; details: CD-1, mouse, po, 10 mg/kg
[11] = IV 2 mg/kg, individual mice n1-n3, 2 mg/kg
[12] = PO 10 mg/kg, individual mice n1-n3, 10 mg/kg
[13] = SC 10 mg/kg, individual mice n1-n3, 10 mg/kg

Question: For `CC(N)Cc1c[nH]c2ccc(OCc3cccs3)cc12` (stereo not shown) [BW, 1-[5-(thiophen-2-ylmethoxy)-1H-indol-3-yl]propan-2-amine], which pIC50 ([1]; [3H]D888 competition) is on record?
Answer: The pIC50 was 5.21.

Question: And the “%Binding inhibition at 10 µM” value ([1]; dose-response study, maximal concentration 10 µM, [3H]D888)?
Answer: Its value is 51.29%.

Question: What about the “pIC50 difference as compared to 5-HT2BR” value ([1]; verapamil site of calcium channel vs 5-HT2BR) of the same molecule?
Answer: The value was 2.3 log10.

Question: What about the inhibition at 10 µM [2] of the same molecule?
Answer: The inhibition at 10 µM was 91.8%.

Question: What about the IC50 [3] of the same molecule?
Answer: The IC50 was 1320 nM.

Question: What about the inhibition at 10 µM ([3]; dose-response study, maximal concentration 10 µM, [3H]mesulergine) of the same molecule?
Answer: Its inhibition at 10 µM is 91.1%.

Question: What about the “agonist activity in rat stomach fundus” value [4] of the same molecule?
Answer: Its value is “potent agonist”.

Question: What about the inhibition at 10 µM [5] of the same molecule?
Answer: The inhibition at 10 µM was 92%.

Question: And the “plasma detection at 24 h” value ([6]; 24 h after a single administration (data not shown))?
Answer: The value was “no compound could be detected”.

Question: And the half-life ([6]; CD-1, mouse, iv, 2 mg/kg, T1/2, IV 2 mg/kg, individual mice n1-n3)?
Answer: Its half-life is 58.8 min.

Question: What about the half-life ([6]; CD-1, mouse, iv, 2 mg/kg, T1/2, IV 2 mg/kg, mean) of the same molecule?
Answer: The half-life was 55.8 min.

Question: What about the bioavailability ([6]; CD-1, mouse, po, 10 mg/kg, PO 10 mg/kg) of the same molecule?
Answer: The bioavailability was 4.72%.

Question: And the half-life ([6]; CD-1, mouse, po, 10 mg/kg, T1/2, PO 10 mg/kg, mean)?
Answer: The half-life was 153 min.

Question: And the bioavailability ([6]; CD-1, mouse, sc, 10 mg/kg, SC 10 mg/kg)?
Answer: The bioavailability was 35%.

Question: And the half-life ([6]; CD-1, mouse, sc, 10 mg/kg, T1/2, SC 10 mg/kg, individual mice n1-n3)?
Answer: Its half-life is 68.4 min.

Question: What about the half-life ([6]; CD-1, mouse, sc, 10 mg/kg, T1/2, SC 10 mg/kg, mean) of the same molecule?
Answer: Its half-life is 82.2 min.

Question: What about the AUC0-inf ([6]; CD-1, mouse, plasma, iv, 2 mg/kg, AUC0-inf, IV 2 mg/kg, individual mice n1-n3) of the same molecule?
Answer: The AUC0-inf was 289 ng·h/mL.

Question: What about the AUC0-inf ([6]; CD-1, mouse, plasma, iv, 2 mg/kg, AUC0-inf, IV 2 mg/kg, mean) of the same molecule?
Answer: The AUC0-inf was 236 ng·h/mL.

Question: And the C0 ([6]; CD-1, mouse, plasma, iv, 2 mg/kg, C0, IV 2 mg/kg, individual mice n1-n3)?
Answer: Its C0 is 406 ng/mL.

Question: And the C0 ([6]; CD-1, mouse, plasma, iv, 2 mg/kg, C0, IV 2 mg/kg, mean)?
Answer: Its C0 is 354 ng/mL.

Question: And the AUC0-inf ([6]; CD-1, mouse, plasma, po, 10 mg/kg, AUC0-inf, PO 10 mg/kg, individual mice n1-n3)?
Answer: The AUC0-inf was 239 ng·h/mL.

Question: What about the AUC0-inf ([6]; CD-1, mouse, plasma, po, 10 mg/kg, AUC0-inf, PO 10 mg/kg, mean) of the same molecule?
Answer: The AUC0-inf was 278 ng·h/mL.

Question: And the Cmax ([6]; CD-1, mouse, plasma, po, 10 mg/kg, Cmax, PO 10 mg/kg, mean)?
Answer: Its Cmax is 77 ng/mL.

Question: And the Tmax ([6]; CD-1, mouse, plasma, po, 10 mg/kg, Tmax, PO 10 mg/kg, mean)?
Answer: Its Tmax is 34.8 min.

Question: And the AUC0-inf ([6]; CD-1, mouse, plasma, sc, 10 mg/kg, AUC0-inf, SC 10 mg/kg, individual mice n1-n3)?
Answer: Its AUC0-inf is 2030 ng·h/mL.

Question: What about the AUC0-inf ([6]; CD-1, mouse, plasma, sc, 10 mg/kg, AUC0-inf, SC 10 mg/kg, mean) of the same molecule?
Answer: The AUC0-inf was 2070 ng·h/mL.

Question: And the Cmax ([6]; CD-1, mouse, plasma, sc, 10 mg/kg, Cmax, SC 10 mg/kg, individual mice n1-n3)?
Answer: The Cmax was 1100 ng/mL.

Question: What about the Cmax ([6]; CD-1, mouse, plasma, sc, 10 mg/kg, Cmax, SC 10 mg/kg, mean) of the same molecule?
Answer: Its Cmax is 1020 ng/mL.

Question: What about the Tmax ([6]; CD-1, mouse, plasma, sc, 10 mg/kg, Tmax, SC 10 mg/kg, mean) of the same molecule?
Answer: The Tmax was 11.4 min.

Question: And the AUC0-inf [6, 11]?
Answer: Its AUC0-inf is 221 ng·h/mL and 199 ng·h/mL.

Question: And the AUCExtra [6, 11]?
Answer: Its AUCExtra is 4.8% and 3.5% and 4.5%.

Question: And the C0 [6, 11]?
Answer: The C0 was 290 ng/mL and 366 ng/mL.

Question: And the T1/2 [6, 11]?
Answer: Its T1/2 is 50.4 min and 58.8 min.

Question: And the AUCExtra ([6]; IV 2 mg/kg, mean)?
Answer: Its AUCExtra is 4.3%.

Question: What about the AUC0-inf [6, 12] of the same molecule?
Answer: Its AUC0-inf is 294 ng·h/mL and 302 ng·h/mL.

Question: And the AUCExtra [6, 12]?
Answer: The AUCExtra was 29.9% and 7.2% and 1.0%.

Question: What about the Cmax [6, 12] of the same molecule?
Answer: Its Cmax is 36.5 ng/mL and 61.5 ng/mL and 132 ng/mL.

Question: What about the T1/2 [6, 12] of the same molecule?
Answer: Its T1/2 is 270 min and 121 min and 67.8 min.

Question: What about the Tmax [6, 12] of the same molecule?
Answer: Its Tmax is 15 min and 60 min.

Question: And the AUCExtra ([6]; PO 10 mg/kg, mean)?
Answer: Its AUCExtra is 12.7%.

Question: And the AUC0-inf [6, 13]?
Answer: Its AUC0-inf is 2246 ng·h/mL and 1938 ng·h/mL.

Question: And the AUCExtra [6, 13]?
Answer: Its AUCExtra is 0.7% and 1.4% and 3.3%.

Question: And the Cmax [6, 13]?
Answer: The Cmax was 1010 ng/mL and 935 ng/mL.

Question: What about the T1/2 [6, 13] of the same molecule?
Answer: The T1/2 was 72 min and 99 min.

Question: And the Tmax [6, 13]?
Answer: Its Tmax is 0.25 h (2×) and 0.08 h.

Question: And the AUCExtra ([6]; SC 10 mg/kg, mean)?
Answer: Its AUCExtra is 1.8%.

Question: And the IC50 [7]?
Answer: The IC50 was 1020 nM.

Question: And the inhibition at 10 µM ([7]; dose-response study, maximal concentration 10 µM, [3H]LSD)?
Answer: Its inhibition at 10 µM is 91.8%.

Question: What about the inhibition at 10 µM [8] of the same molecule?
Answer: Its inhibition at 10 µM is 68.7%.

Question: And the IC50 [9]?
Answer: Its IC50 is 741 nM.

Question: What about the inhibition at 10 µM ([9]; read-out: %Binding inhibition at 10 µM) of the same molecule?
Answer: Its inhibition at 10 µM is 73.2%.

Question: What about the Tmax [10] of the same molecule?
Answer: The Tmax was 30 min.
